Measurements: ChEMBL document CHEMBL3885881, “DrugMatrix”

Species: Rattus norvegicus
Assay: DrugMatrix - Regimen: Daily Repeat
Type: toxicity, organism-based, Sprague-Dawley
Set-up: regimen Daily Repeat, gender Male, age 6-8 weeks
Conditions: in vivo, po, 35 mg/kg, route oral GAVAGE, dose level Low, vehicle .5 % CMC; for ABSOLUTE BASOPHIL / ABSOLUTE EOSINOPHIL / ABSOLUTE LYMPHOCYTE / ABSOLUTE MONOCYTE / ABSOLUTE SEGMENTED NEUTROPHIL / BASOPHIL / EOSINOPHIL / ERYTHROCYTE COUNT / HEMATOCRIT / HEMOGLOBIN / LEUKOCYTE COUNT / LYMPHOCYTE / MEAN CORPUSCULAR HEMOGLOBIN / MEAN CORPUSCULAR HEMOGLOBIN CONCENTRATION / MEAN CORPUSCULAR VOLUME / MONOCYTE / NEUTROPHIL / NUCLEATED RED BLOOD CELLS / PLATELET COUNT: tissue Blood; for ALANINE AMINOTRANSFERASE / ALBUMIN / ALKALINE PHOSPHATASE / ASPARTATE AMINOTRANSFERASE / BLOOD UREA NITROGEN / CARBON DIOXIDE / CHLORIDE / CHOLESTEROL / CREATINE PHOSPHOKINASE / CREATININE / GLUCOSE / LACTATE DEHYDROGENASE / LIPASE / PHOSPHORUS / POTASSIUM / SODIUM / TOTAL BILIRUBIN / TOTAL PROTEIN / URIC ACID: tissue Plasma

Compound: COC(=O)C1=C(C)NC(C)=C(C(=O)OC)C1c1ccccc1[N+](=O)[O-] [NIFEDIPINE]
- ABSOLUTE BASOPHIL (72 h, time 3 day): 0 CELLS/uL
- ABSOLUTE EOSINOPHIL (72 h, time 3 day): 0 CELLS/uL
- ABSOLUTE LYMPHOCYTE (72 h, time 3 day): 17514.67 CELLS/uL
- ABSOLUTE MONOCYTE (72 h, time 3 day): 172 CELLS/uL
- ABSOLUTE SEGMENTED NEUTROPHIL (72 h, time 3 day): 1213.33 CELLS/uL
- BASOPHIL (72 h, time 3 day): 0%
- EOSINOPHIL (72 h, time 3 day): 0%
- ERYTHROCYTE COUNT (72 h, time 3 day): 5.2 x10E6/uL
- HEMATOCRIT (72 h, time 3 day): 33.43%
- HEMOGLOBIN (72 h, time 3 day): 12.8 G/DL
- LEUKOCYTE COUNT (72 h, time 3 day): 18.9 x10E3/uL
- LYMPHOCYTE (72 h, time 3 day): 92.67%
- MEAN CORPUSCULAR HEMOGLOBIN (72 h, time 3 day): 24.63 pg
- MEAN CORPUSCULAR HEMOGLOBIN CONCENTRATION (72 h, time 3 day): 38.27 G/DL
- MEAN CORPUSCULAR VOLUME (72 h, time 3 day): 64.3 fL
- MONOCYTE (72 h, time 3 day): 1%
- NEUTROPHIL (72 h, time 3 day): 6.33%
- NUCLEATED RED BLOOD CELLS (72 h, time 3 day): 0.33 /100WBC
- PLATELET COUNT (72 h, time 3 day): 1358.33 x10E3/uL
- ALANINE AMINOTRANSFERASE (72 h, time 3 day): 46 u/L
- ALBUMIN (72 h, time 3 day): 4.37 G/DL
- ALKALINE PHOSPHATASE (72 h, time 3 day): 361.33 u/L
- ASPARTATE AMINOTRANSFERASE (72 h, time 3 day): 91.33 u/L
- BLOOD UREA NITROGEN (72 h, time 3 day): 21.67 mg/dL
- CARBON DIOXIDE (72 h, time 3 day): 24 mmol/L
- CHLORIDE (72 h, time 3 day): 106.33 MEQ/L
- CHOLESTEROL (72 h, time 3 day): 90.67 mg/dL
- CREATINE PHOSPHOKINASE (72 h, time 3 day): 276 u/L
- CREATININE (72 h, time 3 day): 0.31 mg/dL
- GLUCOSE (72 h, time 3 day): 142.67 mg/dL
- LACTATE DEHYDROGENASE (72 h, time 3 day): 570 u/L
- LIPASE (72 h, time 3 day): 11 u/L
- PHOSPHORUS (72 h, time 3 day): 11.77 mg/dL
- POTASSIUM (72 h, time 3 day): 6.88 MEQ/L
- SODIUM (72 h, time 3 day): 148.6 MEQ/L
- TOTAL BILIRUBIN (72 h, time 3 day): 0.2 mg/dL
- TOTAL PROTEIN (72 h, time 3 day): 6.2 G/DL
- URIC ACID (72 h, time 3 day): 1.67 mg/dL
- ABSOLUTE BASOPHIL (120 h, time 5 day): 0 CELLS/uL
- ABSOLUTE EOSINOPHIL (120 h, time 5 day): 0 CELLS/uL
- ABSOLUTE LYMPHOCYTE (120 h, time 5 day): 11212.33 CELLS/uL
- ABSOLUTE MONOCYTE (120 h, time 5 day): 196 CELLS/uL
- ABSOLUTE SEGMENTED NEUTROPHIL (120 h, time 5 day): 1358.33 CELLS/uL
- BASOPHIL (120 h, time 5 day): 0%
- EOSINOPHIL (120 h, time 5 day): 0%
- ERYTHROCYTE COUNT (120 h, time 5 day): 6.29 x10E6/uL
- HEMATOCRIT (120 h, time 5 day): 40.53%
- HEMOGLOBIN (120 h, time 5 day): 14.9 G/DL
- LEUKOCYTE COUNT (120 h, time 5 day): 12.77 x10E3/uL
- LYMPHOCYTE (120 h, time 5 day): 88.33%
- MEAN CORPUSCULAR HEMOGLOBIN (120 h, time 5 day): 23.67 pg
- MEAN CORPUSCULAR HEMOGLOBIN CONCENTRATION (120 h, time 5 day): 36.77 G/DL
- MEAN CORPUSCULAR VOLUME (120 h, time 5 day): 64.4 fL
- MONOCYTE (120 h, time 5 day): 1.33%
- NEUTROPHIL (120 h, time 5 day): 10.33%
- NUCLEATED RED BLOOD CELLS (120 h, time 5 day): 0 /100WBC
- PLATELET COUNT (120 h, time 5 day): 1155 x10E3/uL
- ALANINE AMINOTRANSFERASE (120 h, time 5 day): 57 u/L
- ALBUMIN (120 h, time 5 day): 4.5 G/DL
- ALKALINE PHOSPHATASE (120 h, time 5 day): 414.33 u/L
- ASPARTATE AMINOTRANSFERASE (120 h, time 5 day): 79.67 u/L
- BLOOD UREA NITROGEN (120 h, time 5 day): 19 mg/dL
- CARBON DIOXIDE (120 h, time 5 day): 23 mmol/L
- CHLORIDE (120 h, time 5 day): 104 MEQ/L
- CHOLESTEROL (120 h, time 5 day): 81.67 mg/dL
- CREATINE PHOSPHOKINASE (120 h, time 5 day): 210 u/L
- CREATININE (120 h, time 5 day): 0.21 mg/dL
- GLUCOSE (120 h, time 5 day): 163.67 mg/dL
- LACTATE DEHYDROGENASE (120 h, time 5 day): 114.33 u/L
- LIPASE (120 h, time 5 day): 10 u/L
- PHOSPHORUS (120 h, time 5 day): 13.37 mg/dL
- POTASSIUM (120 h, time 5 day): 7.57 MEQ/L
- SODIUM (120 h, time 5 day): 147 MEQ/L
- TOTAL BILIRUBIN (120 h, time 5 day): 0.27 mg/dL
- TOTAL PROTEIN (120 h, time 5 day): 6.5 G/DL
- URIC ACID (120 h, time 5 day): 2 mg/dL
